Series [1] concerns Leishmania donovani. Put plainly: Antitrypanosomal activity against Leishmania donovani amastigotes MHOM-ET-67/L8. The class given is functional, organism-based.
Series [2] is described as follows: Cytotoxicity against rat L6 cells. The class given is toxicity, cell-based.
For series [3], the system named is Trypanosoma brucei rhodesiense. Put plainly: Antitrypanosomal activity against Trypanosoma brucei rhodesiense STIB900 trypomastigotes incubated for 70 hrs by resazurin dye based microplate fluorometer. Format: functional, organism-based. As to conditions: STIB900, 70 h.
The subject of series [4] is Trypanosoma cruzi. The series can be described thus: Antitrypanosomal activity against Trypanosoma cruzi Tulahuen C4. Format: functional, organism-based.
The test system of series [5] is Trypanosoma brucei rhodesiense. Put plainly: Antitrypanosomal activity against Trypanosoma brucei rhodesiense. Format: functional, organism-based.

Calls of active or inactive are those of the source. The rule behind the calls is not given here.

As a reminder, the EC50 is the concentration giving half of the maximal effect. Lower therefore signals an effect from little substance. `CN1CCN(c2ccc(-c3cc(-c4ccccc4[N+](=O)[O-])ncn3)cc2)CC1`: the result in series [1] and in series [4] was inactive. Also, the EC50 in series [2] was 46.9 µM; in series [3], 15.2 µM.

Turning to `CN1CCN(c2ccc(-c3cc(-c4ccccc4)nc(N)n3)cc2)CC1`, the outcome in series [1] and in series [4] was inactive. Moreover, the EC50 in series [2] was 30 µM; in series [3] it was 3.6 µM.

For `CN1CCN(c2ccc(-c3cc(-c4ccccc4Br)ncn3)cc2)CC1`, the outcome in series [1] and in series [4] was inactive. For the same compound, the EC50 in series [2] is 39.6 µM; in series [3] it was 9.7 µM.

`CN1CCN(c2ccc(-c3cc(-c4cccc(Br)c4)ncn3)cc2)CC1`: the outcome in series [1] and in series [4] was inactive. Also, the results for the EC50 in series [2] and in series [3] were 64.5 µM and 1.6 µM, respectively.

As to `CN1CCN(c2ccc(-c3cc(-c4ccc(Cl)cc4)ncn3)cc2)CC1`, the outcome in series [1] and in series [4] was inactive. Moreover, the EC50 in series [2] was 16.4 µM; in series [3], 0.5 µM.

For the compound `CN1CCN(c2ccc(-c3cc(-c4cccc(Cl)c4)nc(N)n3)cc2)CC1`, the outcome in series [1] and in series [4] was inactive. Also, the EC50 worked out at 79.7 µM in series [2] and 1.7 µM in series [3].

For the compound `CN1CCN(c2ccc(-c3cc(-c4ccc(Br)cc4)nc(N)n3)cc2)CC1`, the outcome in series [1] and in series [4] was inactive. The figures for the EC50 in series [2] and in series [3] were 5.1 µM and 1.6 µM, respectively.

Regarding `Cc1nc(-c2ccc(N3CCN(C)CC3)cc2)cc(-c2cccc(Br)c2)n1`, the result in series [1] and in series [4] was inactive. For the same compound, the EC50 in series [2] turned out to be 21.1 µM; in series [3], 1.6 µM.

For the compound `CN1CCN(c2ccc(-c3cc(-c4cccc(Cl)c4)ncn3)cc2)CC1`, the outcome in series [1] and in series [4] was inactive. Further, the EC50 is 36.3 µM in series [2] and 1.7 µM in series [3].

With `Cc1nc(-c2ccc(Br)cc2)cc(-c2ccc(N3CCN(C)CC3)cc2)n1`, the result in series [1] and in series [4] was inactive. The values for the EC50 in series [2] and in series [3] were 11.2 µM and 0.9 µM, respectively.

Compound `COc1cc([C@@H]2c3cc4c(cc3[C@H](O)[C@H]3COC(=O)[C@H]23)OCO4)cc(OC)c1OC` [PODOFILOX] showed an EC50 in series [2] of 0.02 µM.

For the compound `Cc1nc(-c2ccc(Cl)cc2)cc(-c2ccc(N3CCN(C)CC3)cc2)n1`, the result in series [1] and in series [4] was inactive. Moreover, the EC50 is 5.3 µM in series [2] and 0.6 µM in series [3].

As for `CN1CCN(c2ccc(-c3cc(-c4ccccc4Cl)nc(N)n3)cc2)CC1`, the outcome in series [1] and in series [4] was inactive. Besides, the EC50 in series [2] was found to be 40 µM; in series [3] it was 20.2 µM.

As to `CN1CCN(c2ccc(-c3cc(-c4ccc(Cl)cc4)nc(N)n3)cc2)CC1`, the result in series [1] and in series [4] was inactive. Further, the figures for the EC50 in series [2] and in series [3] were 13 µM and 1.8 µM, respectively.

For orientation: EC90 means the concentration at which the effect reaches the 90% level. Low values mean an effect from little substance, high ones a need for much substance. On to `CSc1ccc(OCc2ncc([N+](=O)[O-])n2C)cc1` [FEXINIDAZOLE], for which, in series [5], the EC50 turned out to be 0.76 µM and the 90% effect level (EC90) was put at 0.76 µM.

`CN1CCN(c2ccc(-c3cc(-c4ccccc4Br)nc(N)n3)cc2)CC1`: the outcome in series [1] and in series [4] was inactive. Further, the results for the EC50 in series [2] and in series [3] were 11.6 µM and 10.3 µM, respectively.

In the case of `CN1CCN(c2ccc(-c3cc(-c4ccc(Cl)cc4Cl)nc(N)n3)cc2)CC1`, the result in series [1] and in series [4] was inactive. Also, the EC50 stood at 7.4 µM in series [2] and 0.5 µM in series [3].

As to `CN1CCN(c2ccc(-c3cc(-c4cccc(Cl)c4Cl)ncn3)cc2)CC1`, the result in series [1] and in series [4] was inactive. For the same compound, the EC50 in series [2] amounted to 18.1 µM; in series [3] it was 1.8 µM.

Consider `Cc1nc(-c2ccc(N3CCN(C)CC3)cc2)cc(-c2ccc(Cl)cc2Cl)n1`, for which the result in series [1] and in series [4] was inactive. Moreover, the EC50 in series [2] was more than 100 µM; in series [3], 10.1 µM.

As for `CN1CCN(c2ccc(-c3cc(-c4ccccc4[N+](=O)[O-])nc(N)n3)cc2)CC1`, the result in series [1] and in series [4] was inactive. For the same compound, the EC50 in series [2] was found to be 7.1 µM; in series [3] it was 14 µM.

Consider `CN1CCN(c2ccc(-c3cc(-c4ccc(Cl)cc4Cl)ncn3)cc2)CC1`, for which the outcome in series [1] and in series [4] was inactive. The EC50 in series [2] was more than 100 µM; in series [3], 2.4 µM.

`Cc1nc(-c2ccc(N3CCN(C)CC3)cc2)cc(-c2ccccc2[N+](=O)[O-])n1`: the result in series [1] and in series [4] was inactive. Also, the EC50 in series [2] is 40.2 µM; in series [3], 13.5 µM.

On to `Cc1nc(-c2ccc(N3CCN(C)CC3)cc2)cc(-c2cccc(Cl)c2)n1`, for which the result in series [1] and in series [4] was inactive. The EC50 in series [2] came to 20.8 µM; in series [3], 1.7 µM.

With `CN1CCN(c2ccc(-c3cc(-c4ccccc4)ncn3)cc2)CC1`, the result in series [1] and in series [4] was inactive. Moreover, the EC50 in series [2] was determined as 42.7 µM; in series [3], 3.8 µM.

With `Cc1nc(-c2ccc(N3CCN(C)CC3)cc2)cc(-c2cccc(Cl)c2Cl)n1`, the outcome in series [1] and in series [4] was inactive. Moreover, the EC50 in series [2] is 37.3 µM; in series [3], 3.6 µM.

Take `CN1CCN(c2ccc(-c3cc(-c4cccc(Br)c4)nc(N)n3)cc2)CC1`: the result in series [1] and in series [4] was inactive. Moreover, the EC50 was 33.6 µM in series [2] and 1.1 µM in series [3].

In the case of `Cc1nc(-c2ccc(N3CCN(C)CC3)cc2)cc(-c2ccccc2Br)n1`, the outcome in series [1] and in series [4] was inactive. For the same compound, the EC50 worked out at 35.2 µM in series [2] and 4.3 µM in series [3].

Turning to `CN1CCN(c2ccc(-c3cc(-c4ccc(Br)cc4)ncn3)cc2)CC1`, the result in series [1] and in series [4] was inactive. In addition, the EC50 is 14.4 µM in series [2] and 0.6 µM in series [3].

Consider `Cc1nc(-c2ccccc2)cc(-c2ccc(N3CCN(C)CC3)cc2)n1`, for which the outcome in series [1] and in series [4] was inactive. Also, the EC50 in series [2] is 79.7 µM; in series [3], 2.8 µM.

On to `CN1CCN(c2ccc(-c3cc(-c4ccccc4Cl)ncn3)cc2)CC1`, for which the result in series [1] and in series [4] was inactive. Moreover, the figures for the EC50 in series [2] and in series [3] were 42.6 µM and 5.8 µM, respectively.

The values above are taken from ChEMBL document CHEMBL5576069, “Novel 4-[4-(4-methylpiperazin-1-yl)phenyl]-6-arylpyrimidine derivatives and their antitrypanosomal activities against T.brucei” (Bioorg Med Chem Lett, 2024).
